Source: patent US20010046987A1, “Oxazolidinones having a sulfoximine functionality” (priority 1999, published 2001)
≈ marks a conversion by molar mass, not a printed value.

What was measured:
Enterococcus faecium = assay: MIC by agar dilution, EFAE 12712; assay type: cell-based; conditions: Enterococcus faecium, strain EFAE 12712, read-out: Antibacterial Activity Minimum Inhibitory Concentration EFAE 12712
From the text: (§1) The in vitro activity of compounds of this invention can be assessed by standard testing procedures such as the determination of minimum inhibitory concentration (MIC) by agar dilution as described in “Approved Standard.

[1] = test system: Staphylococcus epidermidis; assay: MIC by agar dilution, SEPI 30593; assay type: cell-based; conditions: Staphylococcus epidermidis, strain SEPI 30593, read-out: Antibacterial Activity Minimum Inhibitory Concentration SEPI 30593
From the text: as §1

H. influenzae = assay: MIC by agar dilution, HINF 30063; assay type: cell-based; conditions: Haemophilus influenzae, strain HINF 30063, read-out: Antibacterial Activity Minimum Inhibitory Concentration HINF 30063
From the text: as §1

Streptococcus pyogenes = assay: MIC by agar dilution, SPYO 152; assay type: cell-based; conditions: Streptococcus pyogenes, strain SPYO 152, read-out: Antibacterial Activity Minimum Inhibitory Concentration SPYO 152
From the text: as §1

Staphylococcus aureus = assay: MIC by agar dilution, SAUR 9213; assay type: cell-based; conditions: Staphylococcus aureus, strain SAUR 9213, read-out: Antibacterial Activity Minimum Inhibitory Concentration SAUR 9213
From the text: as §1

Enterococcus faecalis = assay: MIC by agar dilution, EFAE 9217; assay type: cell-based; conditions: Enterococcus faecalis, strain EFAE 9217, read-out: Antibacterial Activity Minimum Inhibitory Concentration EFAE 9217
From the text: as §1

Streptococcus pneumoniae = assay: MIC by agar dilution, SPNE 9912; assay type: cell-based; conditions: Streptococcus pneumoniae, strain SPNE 9912, read-out: Antibacterial Activity Minimum Inhibitory Concentration SPNE 9912
From the text: as §1

Moraxella catarrhalis = assay: MIC by agar dilution, MCAT 30607; assay type: cell-based; conditions: Moraxella catarrhalis, strain MCAT 30607, read-out: Antibacterial Activity Minimum Inhibitory Concentration MCAT 30607
From the text: as §1

Row | Structure (SMILES) | MIC (Enterococcus faecium) | MIC [1] | MIC (H. influenzae) | MIC (Streptococcus pyogenes) | melting point | MIC (Staphylococcus aureus) | MIC (Enterococcus faecalis) | MIC (Streptococcus pneumoniae) | MIC (Moraxella catarrhalis)
1 | CC[N-][S@+2]1([O-])CC[C@@H](c2ccc(N3C[C@H](CNC(=S)CC)OC3=O)cc2F)CC1 [Example 15, N-({(5S)-3-[3-Fluoro-4-[1-(ethylimino)-1-oxidohexahydro-1λ^4-thiopyran-4-yl]phenyl]-2-oxo-1,3-oxazolidin-5-yl}methyl)propanethioamide, Z-isomer] | 1 µg/mL (≈ 2.26 µM) | 1 µg/mL (≈ 2.26 µM) | 8 µg/mL (≈ 18.1 µM) | 0.5 µg/mL (≈ 1.13 µM) | 200 to 201 °C | 2 µg/mL (≈ 4.53 µM) | 1 µg/mL (≈ 2.26 µM) | 0.5 µg/mL (≈ 1.13 µM) | 2 µg/mL (≈ 4.53 µM)
2 | CCC(=S)NCC1CN(c2ccc(C3CC[S+2]([O-])([N-]Cc4ccccc4)CC3)c(F)c2)C(=O)O1 [Example 16, N-({(5S)-3-[3-Fluoro-4-[1-[(phenylmethyl)imino]-1-oxidohexahydro-1λ^4-thiopyran-4-yl]phenyl]-2-oxo-1,3-oxazolidin-5-yl}methyl)propanethioamide, Z-isomer] | 1 µg/mL (≈ 1.99 µM) | 1 µg/mL (≈ 1.99 µM) | > 64 µg/mL | 0.5 µg/mL (≈ 0.993 µM) | 207 to 208 °C | 2 µg/mL (≈ 3.97 µM) | 1 µg/mL (≈ 1.99 µM) | 0.25 µg/mL (≈ 0.496 µM) | 2 µg/mL (≈ 3.97 µM)
3 | CCC(=S)NCC1CN(c2ccc(C3CC[S+2]([O-])([N-]CCCc4ccccc4)CC3)c(F)c2)C(=O)O1 [Example 17, N-({(5S)-3-[3-Fluoro-4-[1-[(3-phenylpropyl)imino]-1-oxidohexahydro-1λ^4-thiopyran-4-yl]phenyl]-2-oxo-1,3-oxazolidin-5-yl}methyl)propanethioamide, Z-isomer] | 2 µg/mL (≈ 3.76 µM) | 2 µg/mL (≈ 3.76 µM) | > 64 µg/mL | 1 µg/mL (≈ 1.88 µM) | 165.5 to 167 °C | 2 µg/mL (≈ 3.76 µM) | 1 µg/mL (≈ 1.88 µM) | 0.5 µg/mL (≈ 0.94 µM) | 2 µg/mL (≈ 3.76 µM)
4 | CCC(=S)NCC1CN(c2ccc(C3CC[S+2]([O-])([N-]C(=O)NC)CC3)c(F)c2)C(=O)O1 [Example 18, N-({(5S)-3-[3-Fluoro-4-(1-{[(methylamino)carbonyl]imino}-1-oxidohexahydro-1λ^4-thiopyran-4-yl)phenyl]-2-oxo-1,3-oxazolidin-5-yl}methyl)propanethioamide, Z-isomer] | 1 µg/mL (≈ 2.12 µM) | 1 µg/mL (≈ 2.12 µM) | 8 µg/mL (≈ 17 µM) | 0.5 µg/mL (≈ 1.06 µM) | 203 to 204 °C | 2 µg/mL (≈ 4.25 µM) | 1 µg/mL (≈ 2.12 µM) | 0.25 µg/mL (≈ 0.531 µM) | 4 µg/mL (≈ 8.5 µM)
5 | CCC(=S)NCC1CN(c2ccc(C3CC[S+2]([O-])([N-]C(=O)Nc4ccc([N+](=O)[O-])cc4)CC3)c(F)c2)C(=O)O1 [Example 21, N-({(5S)-3-[3-Fluoro-4-(1-{[[(4-nitrophenyl)amino]carbonyl]imino}-1-oxidohexahydro-1λ^4-thiopyran-4-yl)phenyl]-2-oxo-1,3-oxazolidin-5-yl}methyl)propanethioamide, Z-isomer] | 0.25 µg/mL (≈ 0.433 µM) | 0.25 µg/mL (≈ 0.433 µM) | > 64 µg/mL | 0.125 µg/mL (≈ 0.216 µM) | 222 to 228 °C | 0.5 µg/mL (≈ 0.866 µM) | 0.25 µg/mL (≈ 0.433 µM) | < 0.06 µg/mL | 0.25 µg/mL (≈ 0.433 µM)
6 | CCC(=S)NC[C@H]1CN(c2ccc([C@H]3CC[S@+2]([O-])([N-]C(N)=O)CC3)c(F)c2)C(=O)O1 [Example 22, N-({(5S)-3-[3-Fluoro-4-[1-[(aminocarbonyl)imino]-1-oxidohexahydro-1λ^4-thiopyran-4-yl]phenyl]-2-oxo-1,3-oxazolidin-5-yl}methyl)propanethioamide, Z-isomer] | 0.5 µg/mL (≈ 1.1 µM) | 0.05 µg/mL (≈ 0.11 µM) | 4 µg/mL (≈ 8.76 µM) | 0.5 µg/mL (≈ 1.1 µM) | 236 to 238 °C (dec.) | 2 µg/mL (≈ 4.38 µM) | 0.5 µg/mL (≈ 1.1 µM) | 0.125 µg/mL (≈ 0.274 µM) | 2 µg/mL (≈ 4.38 µM)
7 | CCC(=S)NC[C@H]1CN(c2ccc([C@H]3CC[S@+2]([O-])([N-]CC(N)=O)CC3)c(F)c2)C(=O)O1 [Example 23, N-({(5S)-3-[3-Fluoro-4-[1-[[(aminocarbonyl)methyl]imino]-1-oxidohexahydro-1λ^4-thiopyran-4-yl]phenyl]-2-oxo-1,3-oxazolidin-5-yl}methyl)propanethioamide, Z-isomer] | 1 µg/mL (≈ 2.12 µM) | 2 µg/mL (≈ 4.25 µM) | 4 µg/mL (≈ 8.5 µM) | 0.5 µg/mL (≈ 1.06 µM) | 221 to 222 °C | 2 µg/mL (≈ 4.25 µM) | 0.5 µg/mL (≈ 1.06 µM) | 0.25 µg/mL (≈ 0.531 µM) | 4 µg/mL (≈ 8.5 µM)
8 | C[N-][S+2]1([O-])CCC(c2ccc(N3CC(CNC(=S)C4CC4)OC3=O)cc2F)CC1 [Example 29, N-({(5S)-3-[3-Fluoro-4-[1-(methylimino)-1-oxidohexahydro-1λ^4-thiopyran-4-yl]phenyl]-2-oxo-1,3-oxazolidin-5-yl}methyl)cyclopropanecarbothioamide, Z-isomer] | 1 µg/mL (≈ 2.27 µM) | 0.5 µg/mL (≈ 1.14 µM) | 4 µg/mL (≈ 9.1 µM) | 0.5 µg/mL (≈ 1.14 µM) | 201 to 202 °C (dec.) | 1 µg/mL (≈ 2.27 µM) | 0.5 µg/mL (≈ 1.14 µM) | 0.25 µg/mL (≈ 0.569 µM) | 2 µg/mL (≈ 4.55 µM)
